Marks after values point to notes of the source that are not given here.
Tests used:
Parameters in all cases: species or system Sprague–Dawley rats
Conditions in all cases: rat, in vivo
[1] = OLINDA/EXM predicted clinical doses: adult female phantom, non-normalised τ, FBP
Protocol: (§1) PET studies were reconstructed using filtered-back projection (FBP) and Mediso’s iterative Tera-Tomo 3D reconstruction algorithm with the following settings: 4 iterations, 6 subsets, full detector model, normal regularization, spike filter on, voxel size 0.4 mm and 400‒600 keV energy window. PET data were corrected for randoms, scatter and attenuation. Time-activity curves for each source organ, whole-body and remainder of the body were plotted. […] Residence times (τ) were determined for each radiotracer in source organs, whole-body and remaining (any activity assigned to the whole-body but not assigned to a source organ). Each preclinical source organ’s τ was determined by calculating the area under its respective time-activity curve (activity normalised to the percentage maximum injected dose as a function of time) using the trapezoid method. […] From each individual animal, eight dosimetry models were constructed from all possible combinations of image reconstruction method (FBP or iterative), τ (non-normalised or normalised to human organ masses), and sex of phantom (male or female). Supplementary table 6. Predicted clinical absorbed organ doses and whole-body effective doses of PET radiotracers using non-normalised (preclinical) adult female source organ residence times from filtered backprojection reconstructions.

[2] = OLINDA/EXM predicted clinical doses: adult male phantom, non-normalised τ, FBP
Protocol: as §1, with “female).” for “female). Supplementary table 6. Predicted clinical absorbed organ doses and whole-body effective doses of PET radiotracers using non-normalised (preclinical) adult female source organ residence times from filtered backprojection reconstructions.”

[3] = OLINDA/EXM predicted clinical doses: adult female phantom, normalised τ, iterative
Protocol: as §1, with “12.” for “6.”, “normalised” for “non-normalised (preclinical)”, “iterative” for “filtered backprojection”

Substance: NOTA-RGDfK [existing Al^18F-labelled NOTA-RGDfK peptide PET radiotracer; precursor NOTA-RGDfK (1)]
- Effective Dose (mSv/MBq), Average ± SD [1]: 6.49E-02 mSv/MBq
- Estimated Absorbed Dose of Organ, Average: Adrenals [1]: 1.46E-02 mGy/MBq
- Estimated Absorbed Dose of Organ, Average: Brain [1]: 3.20E-03 mGy/MBq
- Estimated Absorbed Dose of Organ, Average: Breasts [1]: 1.01E-02 mGy/MBq
- Estimated Absorbed Dose of Organ, Average: Gallbladder Wall [1]: 1.49E-02 mGy/MBq
- Estimated Absorbed Dose of Organ, Average: Heart Wall [1]: 9.41E-03 mGy/MBq
- Estimated Absorbed Dose of Organ, Average: Kidneys [1]: 2.70E-02 § mGy/MBq
- Estimated Absorbed Dose of Organ, Average: LLI Wall [1]: 1.62E-01 ‡ mGy/MBq
- Estimated Absorbed Dose of Organ, Average: Liver [1]: 9.39E-03 mGy/MBq
- Estimated Absorbed Dose of Organ, Average: Lungs [1]: 7.79E-03 mGy/MBq
- Estimated Absorbed Dose of Organ, Average: Muscle [1]: 1.61E-02 mGy/MBq
- Estimated Absorbed Dose of Organ, Average: Osteogenic Cells [1]: 2.13E-02 mGy/MBq
- Estimated Absorbed Dose of Organ, Average: Ovaries [1]: 3.85E-02 mGy/MBq
- Estimated Absorbed Dose of Organ, Average: Pancreas [1]: 1.53E-02 mGy/MBq
- Estimated Absorbed Dose of Organ, Average: Red Marrow [1]: 1.52E-02 mGy/MBq
- Estimated Absorbed Dose of Organ, Average: Skin [1]: 1.08E-02 mGy/MBq
- Estimated Absorbed Dose of Organ, Average: Small Intestine [1]: 2.41E-02 mGy/MBq
- Estimated Absorbed Dose of Organ, Average: Spleen [1]: 1.45E-02 mGy/MBq
- Estimated Absorbed Dose of Organ, Average: Stomach Wall [1]: 1.50E-02 mGy/MBq
- Estimated Absorbed Dose of Organ, Average: Thymus [1]: 1.25E-02 mGy/MBq
- Estimated Absorbed Dose of Organ, Average: Thyroid [1]: 1.15E-02 mGy/MBq
- Estimated Absorbed Dose of Organ, Average: Total Body [1]: 1.63E-02 mGy/MBq
- Estimated Absorbed Dose of Organ, Average: ULI Wall [1]: 2.11E-02 mGy/MBq
- Estimated Absorbed Dose of Organ, Average: Urinary Bladder Wall [1]: 6.07E-01 † mGy/MBq
- Estimated Absorbed Dose of Organ, Average: Uterus [1]: 4.81E-02 mGy/MBq
- Effective Dose (mSv/MBq), Average [2]: 5.11E-02 mSv/MBq
- Estimated Absorbed Dose of Organ, Average: Adrenals [2]: 1.14E-02 mGy/MBq
- Estimated Absorbed Dose of Organ, Average: Brain [2]: 2.47E-03 mGy/MBq
- Estimated Absorbed Dose of Organ, Average: Breasts [2]: 7.90E-03 mGy/MBq
- Estimated Absorbed Dose of Organ, Average: Gallbladder Wall [2]: 1.24E-02 mGy/MBq
- Estimated Absorbed Dose of Organ, Average: Heart Wall [2]: 7.37E-03 mGy/MBq
- Estimated Absorbed Dose of Organ, Average: Kidneys [2]: 2.41E-02§ mGy/MBq
- Estimated Absorbed Dose of Organ, Average: LLI Wall [2]: 1.46E-01 ‡ mGy/MBq
- Estimated Absorbed Dose of Organ, Average: Liver [2]: 7.25E-03 mGy/MBq
- Estimated Absorbed Dose of Organ, Average: Lungs [2]: 6.07E-03 mGy/MBq
- Estimated Absorbed Dose of Organ, Average: Muscle [2]: 1.31E-02 mGy/MBq
- Estimated Absorbed Dose of Organ, Average: Osteogenic Cells [2]: 1.64E-02 mGy/MBq
- Estimated Absorbed Dose of Organ, Average: Pancreas [2]: 1.22E-02 mGy/MBq
- Estimated Absorbed Dose of Organ, Average: Red Marrow [2]: 1.21E-02 mGy/MBq
- Estimated Absorbed Dose of Organ, Average: Skin [2]: 8.75E-03 mGy/MBq
- Estimated Absorbed Dose of Organ, Average: Small Intestine [2]: 1.97E-02 mGy/MBq
- Estimated Absorbed Dose of Organ, Average: Spleen [2]: 1.15E-02 mGy/MBq
- Estimated Absorbed Dose of Organ, Average: Stomach Wall [2]: 1.21E-02 mGy/MBq
- Estimated Absorbed Dose of Organ, Average: Testes [2]: 1.85E-02 mGy/MBq
- Estimated Absorbed Dose of Organ, Average: Thymus [2]: 9.71E-03 mGy/MBq
- Estimated Absorbed Dose of Organ, Average: Thyroid [2]: 9.77E-03 mGy/MBq
- Estimated Absorbed Dose of Organ, Average: Total Body [2]: 1.30E-02 mGy/MBq
- Estimated Absorbed Dose of Organ, Average: ULI Wall [2]: 1.65E-02 mGy/MBq
- Estimated Absorbed Dose of Organ, Average: Urinary Bladder Wall [2]: 4.35E-01 † mGy/MBq
- Effective Dose [3]: 8.33E-03 mSv/MBq
- Estimated Absorbed Dose of Organ, Brain [3]: 8.66E-03 mGy/MBq
- Estimated Absorbed Dose of Organ, Breasts [3]: 2.91E-03 mGy/MBq
- Estimated Absorbed Dose of Organ, Gallbladder Wall [3]: 5.51E-03 mGy/MBq
- Estimated Absorbed Dose of Organ, Heart Wall [3]: 1.03E-02 mGy/MBq
- Estimated Absorbed Dose of Organ, Kidneys [3]: 1.53E-02 mGy/MBq
- Estimated Absorbed Dose of Organ, LLI Wall [3]: 8.45E-03 mGy/MBq
- Estimated Absorbed Dose of Organ, Liver [3]: 3.23E-02 § mGy/MBq
- Estimated Absorbed Dose of Organ, Lungs [3]: 9.20E-03 mGy/MBq
- Estimated Absorbed Dose of Organ, Muscle [3]: 8.21E-03 mGy/MBq
- Estimated Absorbed Dose of Organ, Osteogenic Cells [3]: 7.60E-03 mGy/MBq
- Estimated Absorbed Dose of Organ, Ovaries [3]: 7.96E-03 mGy/MBq
- Estimated Absorbed Dose of Organ, Pancreas [3]: 1.68E-02 mGy/MBq
- Estimated Absorbed Dose of Organ, Red Marrow [3]: 8.65E-03 mGy/MBq
- Estimated Absorbed Dose of Organ, Skin [3]: 1.09E-02 mGy/MBq
- Estimated Absorbed Dose of Organ, Small Intestine [3]: 6.42E-02 ‡ mGy/MBq
- Estimated Absorbed Dose of Organ, Spleen [3]: 5.48E-03 mGy/MBq
- Estimated Absorbed Dose of Organ, Stomach Wall [3]: 1.13E-02 mGy/MBq
- Estimated Absorbed Dose of Organ, Thymus [3]: 8.11E-03 mGy/MBq
- Estimated Absorbed Dose of Organ, Thyroid [3]: 6.90E-03 mGy/MBq
- Estimated Absorbed Dose of Organ, ULI Wall [3]: 8.02E-03 mGy/MBq
- Estimated Absorbed Dose of Organ, Urinary Bladder Wall [3]: 5.97E-03 mGy/MBq
- Estimated Absorbed Dose of Organ, Uterus [3]: 2.38E-01 † mGy/MBq
- Estimated Absorbed Dose, Total Body [3]: 2.06E-02 mGy/MBq

— paper PMC7525662, “Preclinical dosimetry models and the prediction of clinical doses of novel positron emission tomography radiotracers” (Scientific Reports, 2020)
